According to ChEMBL document CHEMBL1136591, “Novel N1-(benzyl)cinnamamidine derived NR2B subtype-selective NMDA receptor antagonists” (Bioorg Med Chem Lett, 2003):

What follows are molecules tested against T1, Glutamate NMDA receptor; GRIN1/GRIN2B (Homo sapiens, UniProt Q05586+Q13224) (assay: Inhibition of the response to glutamate/glycine in NR1a/NR2B expressing cells).
Format: functional, cell-based

T1 sequence (Q13224 whole entry, other chains not shown): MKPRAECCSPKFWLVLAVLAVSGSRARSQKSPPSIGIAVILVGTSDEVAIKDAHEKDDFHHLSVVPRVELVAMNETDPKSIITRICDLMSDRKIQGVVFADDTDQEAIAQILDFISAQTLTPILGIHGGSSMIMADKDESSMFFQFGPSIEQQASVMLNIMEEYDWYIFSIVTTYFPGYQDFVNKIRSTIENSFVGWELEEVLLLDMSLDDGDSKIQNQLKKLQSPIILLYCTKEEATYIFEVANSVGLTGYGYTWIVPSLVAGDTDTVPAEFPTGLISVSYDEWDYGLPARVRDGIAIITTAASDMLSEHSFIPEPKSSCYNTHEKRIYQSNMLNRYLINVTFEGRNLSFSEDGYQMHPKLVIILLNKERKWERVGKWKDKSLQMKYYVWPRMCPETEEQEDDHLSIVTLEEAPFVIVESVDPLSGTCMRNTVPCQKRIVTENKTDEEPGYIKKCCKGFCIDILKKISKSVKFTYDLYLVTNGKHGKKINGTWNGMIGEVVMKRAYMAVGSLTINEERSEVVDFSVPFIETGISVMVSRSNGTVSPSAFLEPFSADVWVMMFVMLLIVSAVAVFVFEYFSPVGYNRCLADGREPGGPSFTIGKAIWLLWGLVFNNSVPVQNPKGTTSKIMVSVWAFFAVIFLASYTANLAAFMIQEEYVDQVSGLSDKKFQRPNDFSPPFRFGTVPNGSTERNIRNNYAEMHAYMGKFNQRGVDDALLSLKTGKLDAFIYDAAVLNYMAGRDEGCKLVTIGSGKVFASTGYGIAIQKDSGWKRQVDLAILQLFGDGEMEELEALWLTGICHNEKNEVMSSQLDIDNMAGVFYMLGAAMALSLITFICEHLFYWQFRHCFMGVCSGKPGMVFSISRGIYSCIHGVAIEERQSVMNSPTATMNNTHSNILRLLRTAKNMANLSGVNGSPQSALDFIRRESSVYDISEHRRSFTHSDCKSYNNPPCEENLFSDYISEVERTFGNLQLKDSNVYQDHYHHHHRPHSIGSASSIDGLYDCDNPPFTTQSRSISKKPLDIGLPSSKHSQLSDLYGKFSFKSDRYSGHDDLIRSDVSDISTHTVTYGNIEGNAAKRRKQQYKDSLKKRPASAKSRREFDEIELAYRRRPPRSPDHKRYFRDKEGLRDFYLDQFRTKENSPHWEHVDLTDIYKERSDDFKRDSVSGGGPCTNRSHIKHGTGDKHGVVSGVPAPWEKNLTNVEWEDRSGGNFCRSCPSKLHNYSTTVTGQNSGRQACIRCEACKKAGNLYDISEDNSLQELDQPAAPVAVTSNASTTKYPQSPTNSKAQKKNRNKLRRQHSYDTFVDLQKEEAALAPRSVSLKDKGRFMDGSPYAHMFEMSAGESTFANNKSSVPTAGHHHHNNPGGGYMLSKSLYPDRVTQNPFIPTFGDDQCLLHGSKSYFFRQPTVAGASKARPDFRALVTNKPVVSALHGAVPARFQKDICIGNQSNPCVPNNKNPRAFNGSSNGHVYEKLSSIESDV

IC50 [nM]	Compound
70	N=C(/C=C/c1ccccc1)NCc1ccccc1

These molecules were tested against T1, Glutamate NMDA receptor; GRIN1/GRIN2B (assay: Displacement of [3H]ifenprodil binding to recombinant human NR1a/NR2B receptors expressed in L(tk-) cells).
Format: cell-based

Compound	Ki [nM]
N=C(NCc1ccccc1Cl)c1ccc2ccccc2c1	7.3
COc1ccccc1C/N=C(\N)c1ccc2ccccc2c1	1.3
N=C(NCc1cccc(Cl)c1)c1ccc2ccccc2c1	1.6
N=C(/C=C/c1ccc(F)c(F)c1)NCc1ccccc1	1.7
N=C(/C=C/C1CCCCC1)NCc1ccccc1	19
N=C(NCc1ccccc1)c1ccc2ccccc2c1	32
COc1cccc(C/N=C(N)/C=C/c2ccccc2)c1	1.9
N=C(NCCc1ccccc1)c1ccccc1	55
C[C@@H](CN1CCC(Cc2ccccc2)CC1)[C@@H](O)c1ccc(O)cc1	10
N=C(CCc1ccccc1)NCc1ccccc1	530
NC(=NCc1ccccc1)c1ccccc1	10000
CCOc1ccccc1C/N=C(N)/C=C/c1ccccc1	0.5

Further lines, results first:

Ki [nM]	Compound
31	N=C(/C=C/c1ccccc1)NCc1cccc(C(F)(F)F)c1
2.7	N=C(/C=C/c1ccccc1)NCc1cc(Cl)ccc1Cl
1.4	N=C(/C=C/c1ccccc1)NCc1ccccc1C(F)(F)F
0.6	N=C(/C=C/c1ccccc1)NCc1ccccc1OC(F)(F)F
1	N=C(/C=C/c1ccccc1)NCc1ccccc1Cl
0.8	N=C(/C=C/c1ccccc1)NCc1cccc(Cl)c1
12	N=C(/C=C/c1cccc(Cl)c1)NCc1ccccc1
1.4	N=C(/C=C/c1ccccc1)NCc1cc(Cl)cc(Cl)c1
77	N=C(/C=C/c1ccccc1)NCc1ccc(Cl)cc1
52	N=C(/C=C/c1ccc(Cl)cc1)NCc1ccccc1
120	N=C(/C=C/c1ccccc1)NCCCc1ccccc1
97	N=C(/C=C/c1ccccc1)NCCc1ccccc1
5.7	N=C(/C=C/c1ccc(F)cc1)NCc1ccccc1
3.6	N=C(/C=C/c1ccccc1)NCc1cccc(Cl)c1Cl
93	N=C(/C=C/c1ccccc1Cl)NCc1ccccc1

The molecules below were run on Glutamate NMDA receptor GRIN1/GRIN2A (Homo sapiens) (assay: Inhibition of the response to glutamate/glycine in NR1a/NR2A expressing cells (No effect uM)).

IC50	Compound
Not Active	N=C(/C=C/c1ccccc1)NCc1ccccc1
